Laboratory results from patent US10660967B2, “Curcumin conjugates and methods of use thereof” (priority 2016, dated 2020).
Where two headings read alike, the source gives them in different places.

How the values were obtained:
[1] = tested on: A-549 (lung) carcinoma cell line; assay: Anti-tumor properties, MTT; assay type: cell-based; conditions: Homo sapiens, A549
[2] = tested on: MCF7 (breast) carcinoma cell line; assay: Anti-tumor properties, MTT; assay type: cell-based; conditions: Homo sapiens; for IC50: MCF7, read-out: IC50 (μM) MCF7 (breast)
Method in brief: (§1)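 Cells seeded at 10×10^3 per well for 24 h, then exposed to compound in serum-free medium (final up to 100 μM, 0.5% DMSO vehicle) for 72 h in triplicate. Viability by MTT reduction (4 h, SDS solubilised), absorbance 595 nm/ref 620 nm; IC50 from survival curves.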

[3] = tested on: HepG2 (hepatocellular) carcinoma cell line; assay: Anti-tumor properties, MTT; assay type: cell-based; conditions: Homo sapiens; for IC50: HepG2, read-out: IC50 (μM) HepG2 (liver)
Method in brief: as §1

[4] = tested on: HCT116 (colon) carcinoma cell line; assay: Anti-tumor properties, MTT; assay type: cell-based; conditions: Homo sapiens, HCT-116; for IC50: read-out: IC50 (μM) HCT116 (colon)
Method in brief: as §1

[5] = tested on: Salmonella typhi ATCC19430; assay: Antimicrobial MIC, agar dilution; assay type: cell-based; conditions: Salmonella enterica, read-out: Minimum inhibitory concentration (MIC)
[6] = tested on: Pseudomonas aeruginosa ATCC27853; assay: Antimicrobial MIC, agar dilution
[7] = tested on: Staphylococcus aureus ATCC25923; assay: Antimicrobial MIC, agar dilution
[8] = tested on: PHA-stimulated splenocytes; assay: Proliferative response of PHA-stimulated splenocytes (MTT assay); assay type: cell-based; conditions: PHA 5 μg/ml, 72 hr; compounds at 5 μM (method says 10 μM); ratio of O.D. versus vehicle control
Method in brief: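 Freshly prepared splenocytes (1×10^6 cells/well) were cultured for 72 h at 37° C with compound at 10 μM final, with or without PHA (5 μg/ml). Viability was read by MTT (4 h), with absorbance at 570 nm against 690 nm reference. Stimulation index is the OD ratio of treated versus vehicle cultures.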

[9] = tested on: lipopolysaccharide-stimulated peritoneal macrophages; assay: Production of nitric oxide by lipopolysaccharide-stimulated peritoneal macrophages (Greiss reagent); assay type: cell-based; design: Potency (%): % inhibition of nitric oxide production relative to lipopolysaccharide-stimulated macrophages: concentration or dose not given beside the values; conditions: LPS-stimulated peritoneal macrophages; for Nitric oxide (nitrite) concentration, μM (average ± SD): 24 h, nitrite by Greiss reagent
Method in brief: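 Macrophages in nitrite-free medium with 0.1% BSA were stimulated with LPS at 0.5–10 ng/ml, some wells also receiving epinephrine, norepinephrine or dopamine at […], for 24 h at 37° C. Nitrite in supernatants was measured with Greiss reagent, 15 min at room temperature, absorbance 532 nm.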

[10] = tested on: Candida albicans (local isolate); assay: Antimicrobial MIC, agar dilution; conditions: Candida albicans, read-out: Minimum inhibitory concentration (MIC)
[11] = tested on: Streptococcus pyogenes ATCC19615; assay: Antimicrobial MIC, agar dilution
[12] = tested on: PC3 (prostate) carcinoma cell line; assay: Anti-tumor properties, MTT; assay type: cell-based; conditions: Homo sapiens
[13] = tested on: gastric mucosa; assay: Ulcerogenic liability (ulcer index); assay type: in vivo, albino mice; conditions: orally, three successive days, 10 mg/kg indomethacin mol equivalent; for Number of animals with ulcer: 6 animals per group; for Ulcer index: sum of the three values
Protocol: The ulcerogenic liability was investigated in albino mice using the standard method. […] The animals were fasted 18 h before drug administration. […] The control group animals were given saline solution only with few drops of Tween 80. […] The gastric mucosa was examined with a magnifying lens (10×) for the presence of lesions and erosions.
1. percentage incidence of ulcer divided by 10;
2. average number of ulcers per stomach; and
3. average severity of ulcers;

[14] = tested on: MCF-7 cells; assay: Effect on doxorubicin induced cytotoxicity (MTT)
Method in brief: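 MCF-7 cells were exposed for 48 hr to 100 μM curcumin derivative alone or combined with 10 μM doxorubicin. Controls got medium, DMSO vehicle, or vehicle+doxorubicin. Percent viable cells was read by MTT assay.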

[15] = ATCC27853, 18 h, read-out: Minimum inhibitory concentration (MIC)
[16] = ATCC27853, read-out: Minimum inhibitory concentration (MIC)
[17] = ATCC25923, 18 h, read-out: Minimum inhibitory concentration (MIC)
[18] = ATCC25923, read-out: Minimum inhibitory concentration (MIC)
[19] = ATCC19615, 18 h, read-out: Minimum inhibitory concentration (MIC)
[20] = ATCC19615, read-out: Minimum inhibitory concentration (MIC)

SMILES | IC50 [1] | IC50 [2] | IC50 [3] | IC50 [4] | MIC ([5]; 18 h) | MIC [5] | MIC [6, 15] | MIC [6, 16] | MIC [7, 17] | MIC [7, 18] | Stimulation Index (average ± SD) [8] | Potency (%): % inhibition of nitric oxide production relative to lipopolysaccharide-stimulated macrophages [9] | Nitric oxide (nitrite) concentration, μM (average ± SD) [9] | MIC ([10]; 18 h) | MIC [10] | MIC [11, 19] | MIC [11, 20] | IC50 [12] | other results
COc1cc(/C=C/C(=O)CC(=O)/C=C/c2ccc(OC(=O)C(C)NC(=O)OC(C)(C)C)c(OC)c2)ccc1OC(=O)C(C)NC(=O)OC(C)(C)C (racemic) [Boc-DL-Ala-Cur, ((1E,6E)-3,5-dioxohepta-1,6-diene-1,7-diyl)bis(2-methoxy-4,1-phenylene) bis(2-((tert-butoxycarbonyl)amino)propanoate)] | 73.9 µM | 34.8 µM | > 100 µM | > 100 µM | 0.25 µg/mL | 0.352 µM | 0.25 µg/mL | 0.352 µM | 0.25 µg/mL | 0.352 µM | 1.78 ± 0.07 | 30.88% | 18.88 ± 0.46 µM | 0.5 µg/mL | 0.703 µM | 0.125 µg/mL | 0.176 µM | > 100 µM | –
COc1cc(/C=C/C(=O)CC(=O)/C=C/c2ccc(OC(=O)C(C)N)c(OC)c2)ccc1OC(=O)C(C)N.Cl.Cl (racemic) [HCl-DL-Ala-Cur, 1,1′-((((1E,6E)-3,5-dioxohepta-1,6-diene-1,7-diyl)bis(2-methoxy-4,1-phenylene))bis(oxy))bis(1-oxopropan-2-aminium) chloride] | 22.2 µM | 9.79 µM | 36.8 µM | 66.9 µM | 0.25 µg/mL | 0.428 µM | 0.5 µg/mL | 0.857 µM | 0.125 µg/mL | 0.214 µM | 1.91 ± 0.15 | 27.69% | 19.75 ± 0.97 µM | 1 µg/mL | 1.71 µM | 0.25 µg/mL | 0.428 µM | 21.7 µM | –
COc1cc(/C=C/C(=O)CC(=O)/C=C/c2ccc(OC(=O)[C@@H](C)NC(=O)OC(C)(C)C)c(OC)c2)ccc1OC(=O)[C@@H](C)NC(=O)OC(C)(C)C [Boc-D-Ala-Cur, ((1E,6E)-3,5-dioxohepta-1,6-diene-1,7-diyl)bis(2-methoxy-4,1-phenylene) (2R,2′R)-bis(2-((tert-butoxycarbonyl)amino)propanoate)] | 85.4 µM | 29.2 µM | > 100 µM | > 100 µM | 0.25 µg/mL | 0.352 µM | 0.25 µg/mL | 0.352 µM | 0.125 µg/mL | 0.176 µM | 2.07 ± 0.12 | 23.82% | 20.81 ± 0.82 µM | 0.5 µg/mL | 0.703 µM | 1 µg/mL | 1.41 µM | > 100 µM | –
COc1cc(/C=C/C(=O)CC(=O)/C=C/c2ccc(OC(=O)[C@@H](CCSC)NC(=O)OC(C)(C)C)c(OC)c2)ccc1OC(=O)[C@@H](CCSC)NC(=O)OC(C)(C)C [Boc-D-Met-Cur, ((1E,6E)-3,5-dioxohepta-1,6-diene-1,7-diyl)bis(2-methoxy-4,1-phenylene) (2R,2′R)-bis(2-((tert-butoxycarbonyl)amino)-4-(methylthio)butanoate)] | > 100 µM | 22.3 µM | > 100 µM | > 100 µM | 1 µg/mL | 1.2 µM | 0.25 µg/mL | 0.301 µM | 0.25 µg/mL | 0.301 µM | 2.53 ± 0.08 | – | – | 0.5 µg/mL | 0.602 µM | 0.125 µg/mL | 0.15 µM | > 100 µM | % Incidence of ulcer divided by 10 [13]: 0; Average of ulcer number [13]: 0; Average severity of ulcer [13]: 0; Number of animals with ulcer [13]: 0/6; Ulcer index [13]: 0
COc1cc(/C=C/C(=O)CC(=O)/C=C/c2ccc(OC(=O)[C@H](Cc3ccccc3)NC(=O)OC(C)(C)C)c(OC)c2)ccc1OC(=O)[C@H](Cc1ccccc1)NC(=O)OC(C)(C)C [Boc-L-Phe-Cur, ((1E,6E)-3,5-dioxohepta-1,6-diene-1,7-diyl)bis(2-methoxy-4,1-phenylene) (2S,2′S)-bis(2-((tert-butoxycarbonyl)amino)-3-phenylpropanoate)] | > 100 µM | > 100 µM | > 100 µM | > 100 µM | 0.25 µg/mL | 0.29 µM | 1 µg/mL | 1.16 µM | 0.25 µg/mL | 0.29 µM | 2.56 ± 0.14 | – | – | 1 µg/mL | 1.16 µM | 0.125 µg/mL | 0.145 µM | > 100 µM | –
COc1cc(/C=C/C(=O)CC(=O)/C=C/c2ccc(OC(=O)[C@H](CCSC)NC(=O)OCC3c4ccccc4-c4ccccc43)c(OC)c2)ccc1OC(=O)[C@H](CCSC)NC(=O)OCC1c2ccccc2-c2ccccc21 [Fmoc-Met-Cur, ((1E,6E)-3,5-dioxohepta-1,6-diene-1,7-diyl)bis(2-methoxy-4,1-phenylene) (2S,2′S)-bis(2-((((9H-fluoren-9-yl)methoxy)carbonyl)amino)-4-(methylthio)butanoate)] | – | – | – | – | 2 µg/mL | 1.86 µM | 2 µg/mL | 1.86 µM | 0.25 µg/mL | 0.233 µM | 1.07 ± 0.16 | 47.91% | 14.23 ± 1.05 µM | 0.5 µg/mL | 0.465 µM | 0.125 µg/mL | 0.116 µM | – | Percentage of viable cells MCF-7 (average ± SD) ([14]; 10 μM DOX in combination with 100 μM curcumin derivative, 48 hr): 38.75 ± 1.65; viability at 100 µM ([14]; Homo sapiens, MCF7, 48 h, read-out: Percentage of viable cells MCF-7 (average ± SD)): 99.3 ± 3.16%; activity at 100 µM ([2]; MCF7, 100 μM, 72 h, read-out: Percentage growth of tumor cell lines treated with the tested compounds (±SD)): 88.9 ± 5%; activity at 100 µM ([3]; HepG2, 100 μM, 72 h, read-out: Percentage growth of tumor cell lines treated with the tested compounds (±SD)): 92.4 ± 5.1%; activity at 100 µM ([4]; HCT116, 100 μM, 72 h, read-out: Percentage growth of tumor cell lines treated with the tested compounds (±SD)): 96.4 ± 1.4%; % Incidence of ulcer divided by 10 [13]: 0; Average of ulcer number [13]: 0; Average severity of ulcer [13]: 0; Number of animals with ulcer [13]: 0/6; Ulcer index [13]: 0
COc1cc(/C=C/C(=O)CC(=O)/C=C/c2ccc(OC(=O)[C@H](CCC(N)=O)NC(=O)OCc3ccccc3)c(OC)c2)ccc1OC(=O)[C@H](CCC(N)=O)NC(=O)OCc1ccccc1 [Z-L-Gln-Cur, ((1E,6E)-3,5-dioxohepta-1,6-diene-1,7-diyl)bis(2-methoxy-4,1-phenylene) (2S,2′S)-bis(5-amino-2-(((benzyloxy)carbonyl)amino)-5-oxopentanoate)] | 46.1 µM | 10.2 µM | > 100 µM | > 100 µM | 0.5 µg/mL | 0.56 µM | 1 µg/mL | 1.12 µM | 0.5 µg/mL | 0.56 µM | 2.37 ± 0.16 | – | – | 0.5 µg/mL | 0.56 µM | 0.125 µg/mL | 0.14 µM | 90.7 µM | –
